Experimental data: patent US10980787B2, “Drug for treating or preventing disorder caused by TGF-B signals, and application thereof” (THE DOSHISHA, priority 2015, dated 2021)

Tests used:
[1] = system: immobilized human corneal endothelial cells (iFECD); assay: Mitochondrial membrane potential, JC-1 stain, confocal microscope; type: cell-based; conditions: CCCP 50 μmol/L, 9 hours, uncoupling agent
Experimental: (§1) The medium was removed from a culture dish in which immobilized human corneal endothelial cells were being cultured, and the cells were supplemented with 1×PBS (−) that was preheated to 37° C., and were washed. This was repeated twice. The cells were supplemented again with 1×PBS (−) and incubated for 5 minutes at 37° C. (5% CO2). After removing the PBS (−), the cells were supplemented with 0.05% Trypsin-EDTA (Nacalai Tesque, 35554-64) and incubated for 5 minutes at 37° C. (5% CO2). The cells were then suspended in a medium, and collected by centrifugation at 1500 rpm for 3 minutes. DMEM (Nacalai Tesque, 08456-94)+10% FBS (Biowest, S1820-500)+1% P/S (Nacalai Tesque, 26252-94) was used as the medium.
Immobilized human corneal endothelial cells (lot: iFECD3-5) were seeded on a 48-well plate at a ratio of 4×10^4 cells per well and cultured for 48 hours at 37° C. (5% CO2). DMEM+10% FBS+1% P/S was used as the medium.
After 48 hours, the medium was removed. Each inhibitor was added to culture the cells for 24 hours (pretreatment). DMSO (Dimethyl Sulfoxide Sterile-filtered) (Nacalai Tesque, 13408-64) was added to the control group and the TGF-β2 group. The CCCP group was supplemented with CCCP (abcam, ab141229), so that the final concentration was 50 μmol/L, and cultured for 9 hours. […]
Mitochondrial membrane potential was analyzed by the following procedure with a JC-1 stain. […]

[2] = system: immobilized human corneal endothelial cells (iFECD); assay: Mitochondrial membrane potential decreased cells, JC-1 flow cytometry; type: cell-based; conditions: TGF-β2 10 ng/ml 30 hours, SB203580 10 μM, PH-797804 1 μM, VX-702 3 μM, compared to the TGF-β2 group or SB431542 10 μM group
Experimental: as §1, with “C. (5% C02). After removing” for “C. (5% CO2). After removing”
(§2) Immobilized human corneal endothelial cells (lot: iFECD3-5) were seeded on a 12-well plate at a ratio of 8×10^4 cells per well and cultured for 48 hours at 37° C. (5% CO2). DMEM+10% FBS+1% P/S was used as the medium.
After 48 hours, the medium was removed. Each inhibitor was added to culture the cells for 24 hours (pretreatment). DMSO (Dimethyl Sulfoxide Sterile-filtered) (Nacalai Tesque, 13408-64) was added to the control group and the TGF-β2 group. DMEM+2% FBS+1% P/S was used as the medium. […]
The samples prepared above were analyzed using BD Accuri C6 Flow Cytometer (BD).

[3] = system: smad2 and smad3; assay: Western blot of phospho-smad2 and smad3 after TGF-β2 stimulation; type: cell-based, human; conditions: iFECD, TGF-β2 10 ng/ml 24 hours; SB431542 10 μM, SB203580 10 μM, PH-797804 1 μM, VX-702 3 μM
From the text: The same procedure as Example 4 was used. However, rabbit anti-Phospho-Smad2 antibody: 1000-fold dilution, rabbit anti-Phospho-Smad3 antibody: 1000-fold dilution, and mouse anti-GAPDH antibody: 3000-fold dilution were used as the primary antibodies.

[4] = system: immobilized human corneal endothelial cells (iFECD); assay: Cell damage by TGF-β2 stimulation, phase differential microscope; type: cell-based; conditions: 24 h pretreatment, TGF-β2 10 ng/ml 27 hours, SB203580 10 μM, PH-797804 1 μM, VX-702 3 μM, SB431542 10 μM
Experimental: as §1, with “P/S (penicillin-streptomycin mixture)” for “P/S”
as §2
After 48 hours, the medium was removed. Each inhibitor was added to culture the cells for 24 hours. DMSO (Dimethyl Sulfoxide Sterile-filtered) (Nacalai Tesque, 13408-64) was added to the control group and the TGF-52 group. DMEM+2% FBS+1% P/S was used as the medium.
After 24 hours, the medium was removed. A medium containing 10 ng/ml of Recombinant Human TGF-β2 (R&D systems, RND302-B2-002) and each inhibitor was added to culture the cells for 27 hours. […]

[5] = system: Human corneal endothelial cells; assay: Cell count 24 hours after thawing cryopreserved cells, CellTiter-Glo; type: cell-based; conditions: SB203580 10 μM, 24 hours after seeding thawed cells
Experimental: After thawing the cryopreserved cells by adding only DMSO, 10000 cells were seeded in a 96-well plate that was coated with laminin E8. SB203580 (Cayman, catalog number: 13067) was added so that the final concentration was 10 μM upon seeding. DMSO was added to the group to which SB203580 was not added. After 24 hours from seeding, CellTiter-Glo Luminescent Cell Viability Assay (Promega catalog number: G7570) was performed to measure luminescence.

[6] = system: Human corneal endothelial cells; assay: Cryopreservation of corneal endothelial cells, trypan blue dye exclusion test; type: cell-based; conditions: SB203580 10 μM in KM BANKER, 3 days at −80° C.
Experimental: Human corneal endothelial cells cultured in an MSC-CM (MSC cultured medium) were used in the test. The medium was removed from a culture dish in which human corneal endothelial cells were being cultured, and the cells were supplemented with PBS (−) that was preheated to 37° C., and were washed. This was repeated twice. After removing the PBS (−), the cells were supplemented with TrypLE Select (×10) (GIBCO, A12177-01) and incubated for 10 minutes at 37° C. (5% CO2). SB203580 was added to KM BANKER, so that the final concentration was 10 μM. The control group was cryopreserved by supplementing a reagent solvent, dimethyl sulfoxide (DMSO) (Dimethyl Sulfoxide Sterile-filtered; Nacalai Tesque, 13408-64). After 3 days of storage at −80° C., the tube was thawed by being immersed in a 37° C. water bath. After thawing, the sample was washed in a medium. Live and dead cell counts were measured by trypan blue dye exclusion test.

[7] = cited from earlier work

N#CC(C#N)=NNc1cccc(Cl)c1 [CCCP]
mitochondrial membrane potential (JC-1 red fluorescence) [1]: not observed

CNC(=O)c1ccc(C)c(-n2c(C)cc(OCc3ccc(F)cc3F)c(Br)c2=O)c1 [PH-797804, 3-[3-bromo-4-[(2,4-difluorophenyl)methoxy]-6-methyl-2-oxopyridin-1-yl]-N,4-dimethylbenzamide]
percentage of mitochondrial membrane potential decreased cells [2]: comparable to or lower than the SB431542 added group

NC(=O)c1ccc(-c2nc(-c3ccc4c(c3)OCO4)c(-c3ccccn3)[nH]2)cc1 [SB431542]
smad2 and smad3 (downstream of TGF-β signaling pathway) in western blot [3]: not found | damage to corneal endothelial cells due to TGF-β2 stimulation [4]: suppressed

C[S+]([O-])c1ccc(-c2nc(-c3ccncc3)c(-c3ccc(F)cc3)[nH]2)cc1 (stereo not drawn) [SB203580, 4-(4-fluorophenyl)-2-(4-methylsulfinylphenyl)-5-(4-pyridyl)-1H-imidazole]
cell count compared to the DMSO-added group [5]: about 1.3 fold | cell viability immediately after thawing compared to DMSO [6]: slightly higher | percentage of mitochondrial membrane potential decreased cells [2]: comparable to or lower than the SB431542 added group | solubility into methanol ([7]; methanol): soluble | solubility into water ([7]; water): difficult to dissolve
